Data taken from ChEMBL document CHEMBL1909294, “Translating clinical findings into knowledge in drug safety evaluation--drug induced liver injury prediction system (DILIps)” (PLoS Comput Biol, 2011).

Tests used:
Hepatotoxicity [1] = tested on: Hepatotoxicity;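 on HepSE bilirubinemia: bilirubinemia hepatic side effect score drawn from the DILIps training data, a prediction system for drug-induced liver injury; call rule not given here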;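 on HepSE cholecystitis: Cholecystitis-related hepatic side effect score drawn from the DILIps (drug-induced liver injury prediction) training data set; call rule not given here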;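 on HepSE cholelithiasis: hepatic side effect score for cholelithiasis, drawn from the DILIps training data for predicting drug-induced liver injury; call rule not given here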;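 on HepSE cirrhosis: cirrhosis hepatic side effect score taken from the DILIps (drug-induced liver injury prediction) training set; call rule not given here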;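 on HepSE elevated liver function tests: hepatic side effect score for raised liver function tests, as recorded in the DILIps training set used for predicting drug-induced liver injury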; on HepSE hepatic failure: call rule not given here;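 on HepSE hepatomegaly: hepatic side effect score for hepatomegaly, taken from the training set of the DILIps drug-induced liver injury prediction system; call rule not given here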
Hepatotoxicity [2] = tested on: Hepatotoxicity; remark: listed apart in the source;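 on HepSE bilirubinemia: bilirubinemia hepatic side effect score drawn from the DILIps training data, a prediction system for drug-induced liver injury; call rule not given here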;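 on HepSE cholecystitis: Cholecystitis-related hepatic side effect score drawn from the DILIps (drug-induced liver injury prediction) training data set; call rule not given here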;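 on HepSE cholelithiasis: hepatic side effect score for cholelithiasis, drawn from the DILIps training data for predicting drug-induced liver injury; call rule not given here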;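 on HepSE cirrhosis: cirrhosis hepatic side effect score taken from the DILIps (drug-induced liver injury prediction) training set; call rule not given here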;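 on HepSE elevated liver function tests: hepatic side effect score for raised liver function tests, as recorded in the DILIps training set used for predicting drug-induced liver injury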; on HepSE hepatic failure: call rule not given here;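 on HepSE hepatomegaly: hepatic side effect score for hepatomegaly, taken from the training set of the DILIps drug-induced liver injury prediction system; call rule not given here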
Hepatotoxicity [3] = tested on: Hepatotoxicity; remark: listed apart in the source;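 on HepSE bilirubinemia: bilirubinemia hepatic side effect score drawn from the DILIps training data, a prediction system for drug-induced liver injury; call rule not given here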;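 on HepSE cholecystitis: Cholecystitis-related hepatic side effect score drawn from the DILIps (drug-induced liver injury prediction) training data set; call rule not given here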;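 on HepSE cholelithiasis: hepatic side effect score for cholelithiasis, drawn from the DILIps training data for predicting drug-induced liver injury; call rule not given here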;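 on HepSE cirrhosis: cirrhosis hepatic side effect score taken from the DILIps (drug-induced liver injury prediction) training set; call rule not given here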;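 on HepSE elevated liver function tests: hepatic side effect score for raised liver function tests, as recorded in the DILIps training set used for predicting drug-induced liver injury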; on HepSE hepatic failure: call rule not given here
Hepatotoxicity [4] = tested on: Hepatotoxicity; remark: listed apart in the source;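 on HepSE bilirubinemia: bilirubinemia hepatic side effect score drawn from the DILIps training data, a prediction system for drug-induced liver injury; call rule not given here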;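 on HepSE cholecystitis: Cholecystitis-related hepatic side effect score drawn from the DILIps (drug-induced liver injury prediction) training data set; call rule not given here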;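 on HepSE cholelithiasis: hepatic side effect score for cholelithiasis, drawn from the DILIps training data for predicting drug-induced liver injury; call rule not given here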;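 on HepSE cirrhosis: cirrhosis hepatic side effect score taken from the DILIps (drug-induced liver injury prediction) training set; call rule not given here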;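 on HepSE elevated liver function tests: hepatic side effect score for raised liver function tests, as recorded in the DILIps training set used for predicting drug-induced liver injury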; on HepSE hepatic failure: call rule not given here
Hepatotoxicity [5] = tested on: Hepatotoxicity; remark: listed apart in the source; on HepSE hepatic failure: call rule not given here
Hepatotoxicity [6] = tested on: Hepatotoxicity; remark: listed apart in the source; on HepSE hepatic failure: call rule not given here
Hepatotoxicity [7] = tested on: Hepatotoxicity; remark: listed apart in the source
Hepatotoxicity [8] = tested on: Hepatotoxicity; remark: listed apart in the source
Hepatotoxicity [9] = tested on: Hepatotoxicity; remark: listed apart in the source
Hepatotoxicity [10] = tested on: Hepatotoxicity; remark: listed apart in the source
Hepatotoxicity [11] = tested on: Hepatotoxicity; remark: listed apart in the source
Hepatotoxicity [12] = tested on: Hepatotoxicity; remark: listed apart in the source
Hepatotoxicity [13] = tested on: Hepatotoxicity; remark: listed apart in the source
Hepatotoxicity [14] = tested on: Hepatotoxicity; remark: listed apart in the source

| SMILES | HepSE_bilirubinemia (Hepatotoxicity [1]) | HepSE_cholecystitis (Hepatotoxicity [2]) | HepSE_cholelithiasis (Hepatotoxicity [3]) | HepSE_cirrhosis (Hepatotoxicity [4]) | HepSE_elevated liver function tests (Hepatotoxicity [5]) | HepSE_hepatic failure (Hepatotoxicity [6]) | HepSE_hepatic necrosis (Hepatotoxicity [7]) | HepSE_hepatitis (Hepatotoxicity [8]) | HepSE_hepatomegaly (Hepatotoxicity [9]) | HepSE_jaundice (Hepatotoxicity [10]) | HepSE_liver disease (Hepatotoxicity [11]) | HepSE_liver fatty (Hepatotoxicity [12]) | HepSE_liver function tests abnormal (Hepatotoxicity [13]) | HepSE_Combined Scores (Hepatotoxicity [14]) | also measured |
| --- | --- | --- | --- | --- | --- | --- | --- | --- | --- | --- | --- | --- | --- | --- | --- |
| CC(C)c1nc(N(C)S(C)(=O)=O)nc(-c2ccc(F)cc2)c1/C=C/[C@@H](O)C[C@@H](O)CC(=O)O [ROSUVASTATIN] | 0 | 0 | 0 | 0 | 0 | 0 | 0 | 1 | 0 | 1 | 0 | 0 | 0 | 2 | – |
| O=C1CC2(CCCC2)CC(=O)N1CCCCN1CCN(c2ncccn2)CC1 [BUSPIRONE] | 0 | 0 | 0 | 0 | 0 | 0 | 0 | 0 | 0 | 0 | 0 | 0 | 0 | 0 | – |
| NS(=O)(=O)c1cc(C2(O)NC(=O)c3ccccc32)ccc1Cl (configuration not stated) [CHLORTHALIDONE] | 0 | 0 | 0 | 0 | 0 | 0 | 0 | 0 | 0 | 1 | 0 | 0 | 0 | 1 | – |
| Cc1nc2n(c(=O)c1CCN1CCC(c3noc4cc(F)ccc34)CC1)CCCC2 [RISPERIDONE] | 1 | 1 | 1 | 0 | 0 | 1 | 0 | 1 | 1 | 1 | 0 | 1 | 0 | 8 | – |
| CN[C@@H]1[C@H](O)[C@H](NC)[C@H]2O[C@@]3(O)C(=O)C[C@@H](C)O[C@H]3O[C@@H]2[C@H]1O [SPECTINOMYCIN] | 0 | 0 | 0 | 0 | 0 | 0 | 0 | 0 | 0 | 0 | 0 | 0 | 0 | 0 | – |
| CC(=O)CCCCn1c(=O)c2c(ncn2C)n(C)c1=O [PENTOXIFYLLINE] | 0 | 1 | 0 | 0 | 0 | 0 | 0 | 1 | 0 | 1 | 0 | 0 | 0 | 3 | – |
| N[C@@H]1CON=C1O [CYCLOSERINE] | 0 | 0 | 0 | 0 | 0 | 0 | 0 | 0 | 0 | 0 | 1 | 0 | 0 | 1 | – |
| FC(F)(F)C(Cl)Br (configuration not stated) [HALOTHANE] | 0 | 0 | 0 | 0 | 0 | 0 | 1 | 0 | 0 | 0 | 0 | 0 | 0 | 1 | – |
| CC(C)OC(=O)CCC/C=C\C[C@@H]1[C@@H](CC[C@@H](O)CCc2ccccc2)[C@H](O)C[C@@H]1O [LATANOPROST] | 0 | 0 | 0 | 0 | 0 | 0 | 0 | 0 | 0 | 0 | 0 | 0 | 0 | 0 | – |
| CCCCCOC(=O)Nc1nc(=O)n([C@@H]2O[C@H](C)[C@@H](O)[C@H]2O)cc1F [CAPECITABINE] | 1 | 0 | 0 | 0 | 0 | 1 | 0 | 1 | 1 | 1 | 0 | 1 | 1 | 7 | – |
| OCc1cc(C(O)CNCCCCCCOCCCCc2ccccc2)ccc1O (configuration not stated) [SALMETEROL] | 0 | 0 | 0 | 0 | 0 | 0 | 0 | 0 | 0 | 0 | 0 | 0 | 0 | 0 | – |
| CNCCCN1c2ccccc2CCc2ccccc21 [DESIPRAMINE] | – | – | – | – | – | – | – | – | – | – | – | – | – | – | HepSE_bilirubinemia (Hepatotoxicity [1]; Liver): 0; HepSE_cholecystitis (Hepatotoxicity [2]; Liver): 0; HepSE_cholelithiasis (Hepatotoxicity [3]; Liver): 0; HepSE_cirrhosis (Hepatotoxicity [4]; Liver): 0; HepSE_elevated liver function tests (Hepatotoxicity [5]; Liver): 1; HepSE_hepatic failure (Hepatotoxicity [6]; Liver): 0; HepSE_hepatic necrosis (Hepatotoxicity [7]; Liver): 0; HepSE_hepatitis (Hepatotoxicity [8]; Liver): 1; HepSE_hepatomegaly (Hepatotoxicity [9]; Liver): 0; HepSE_jaundice (Hepatotoxicity [10]; Liver): 1; HepSE_liver disease (Hepatotoxicity [11]; Liver): 0; HepSE_liver fatty (Hepatotoxicity [12]; Liver): 0; HepSE_liver function tests abnormal (Hepatotoxicity [13]; Liver): 0; HepSE_Combined Scores (Hepatotoxicity [14]; Liver): 3 |
| COc1ccc2c3c1O[C@H]1C[C@@H](O)C=C[C@@]31CCN(C)C2 [GALANTAMINE] | 0 | 0 | 0 | 0 | 0 | 0 | 0 | 1 | 0 | 0 | 0 | 0 | 0 | 1 | – |
